Tests used:
beagle = test: Acute toxicity (LD50) to beagle; type: in vivo; details: conclusion from LD50 in beagle
Description: (§1) Acute toxicity (LD50) in the case where monosodium phosphoenolpyruvate monohydrate was administered to a beagle was examined.

[1] = Acute toxicity (LD50) to beagle; type: in vivo; details: dog, in vivo, beagle
Description: as §1

[2] = tested on: ischemic kidney of beagle; test: Effect on ischemic kidney of beagle (BUN and creatinine value, recovery of renal function); type: in vivo, male beagles
Description: The animals used in this experiment were 6 male beagles, and were grouped into a group of 3 beagles to which the injection of PEP·Na prepared in Example should be administered and a group of 3 beagles to which a physiological saline should be administered, to carry out experiments as follows in the same manner as in Test Example 1.
To each of the beagles, a 5% aqueous solution of pentobarbital sodium was intravenously injected in an amount of 0.5 ml/kg (b.w.) to apply general anesthesia, and a median incision of its venter was carried out to extirpate the right kidney. Subsequently, the left kidney was exposed to infiltrate xylocaine into the surrounding portion of the renal pelvis, and the blood flow of the left renal artery was blocked for 90 minutes while handling the kidney with tender care. Thereafter, blocking was released for reperfusion. To the beagles belonging to the PEP·Na administered group, PEP·Na was intravenously administered in the form of an injection prepared in Example, with a dose of 100 mg/kg (b.w.) every time immediately after release of blocking, and, also, thereafter, PEP·Na was similarly administered with a dose of 100 mg/kg (b.w.) once a day every day. On the other hand, to the beagles belonging to the control group, physiological saline was intravenously administered in an amount of 10 ml/kg (b.w.) every time immediately after release of blocking, and, also thereafter, physiological saline was similarly administered in an amount of 10 ml/kg (b.w.) once a day.
Next, BUN and creatinine value were assayed with time to make an index showing the recovery rate of renal function. Results obtained are shown in Table 3 and Table 4 and also in FIG. 3 and FIG. 4.

[3] = tested on: ischemic kidney of rabbit; test: Effect on ischemic kidney of rabbit (BUN and creatinine value in blood, recovery of renal function); type: in vivo, male Japanese white-strain rabbits
Excerpt: The animals used in this experiment were 10 male Japanese white-strain rabbits, and were grouped into a group of 5 rabbits to which the injection of monosodium phosphoenolpyruvate (hereinafter simply called "PEP·Na") prepared in Example 4 should be administered and a group of 5 rabbits to which a physiological saline should be administered,to carry out experiments as follows:
To each of the rabbits used in this experiment, a 1% aqueous solution of pentobarbital sodium was intravenously injected in an amount of 3 ml/kg (b.w.) to apply general anesthesia, and a median incision of its venter was carried out to extirpate the right kidney. Subsequently, the left kidney was exposed to infiltrate xylocaine into the surrounding portion of the renal pelvis, and the left renal artery was blocked while handling the kidney with tender care. More specifically, the blood flow of the renal artery was blocked for 60 minutes, and then released for 10 minutes, followed by blocking for more 60 minutes, to perform ischemia for 120 minutes in total. Thereafter, blocking was released for reperfusion. During these procedures, to the rabbits belonging to the PEP·Na group, PEP·Na was intravenously administered in the form of an injection prepared in Example, with a dose of 10 mg/kg (b.w.) every time immediately before release of the first and the second blocking, and, also after release of the blocking, PEP·Na was similarly administered with a dose of 10 mg/kg (b.w.) once a day. On the other hand, to the rabbits belonging to the control group, a physiological saline was intravenously administered in an amount of 1 ml/kg (b.w.) every time immediately before release of the first and the second blocking, and, also after release of the blocking, the physiological saline was similarly administered in an amount of 1 ml/kg (b.w.) once a day, every day.
Next, blood urea nitrogen (hereinafter "BUN") and creatinine value which are standards to know the morbidity of a kidney were assayed with time to make an index showing the recovery rate of renal function. Results obtained are shown in Table 1 and Table 2 and also in FIG. 1 and FIG. 2.

[4] = after 1 day, 100 mg/kg i.v. immediately after release of blocking, then once a day
[5] = after 2 days, 100 mg/kg i.v. immediately after release of blocking, then once a day
[6] = after 3 days, 100 mg/kg i.v. immediately after release of blocking, then once a day
[7] = after 4 days, 100 mg/kg i.v. immediately after release of blocking, then once a day
[8] = immediately before blocking (baseline)
[9] = after 1 day, 10 mg/kg i.v. before each release of blocking, then once a day
[10] = after 2 days, 10 mg/kg i.v. before each release of blocking, then once a day
[11] = after 3 days, 10 mg/kg i.v. before each release of blocking, then once a day
[12] = after 4 days, 10 mg/kg i.v. before each release of blocking, then once a day
[13] = after 5 days, 10 mg/kg i.v. before each release of blocking, then once a day
[14] = rabbits, 1 day (24 hours) after release of blocking
[15] = rabbits, after day 1, over a period of 4 days, vs control group

## C=C(OP(=O)(O)O)C(=O)O [PEP.Na, monosodium phosphoenolpyruvate monohydrate]
beagle
  safety to a living body: very safe substance
[1]; intravenous
  LD50: ≥ 1000 mg/kg
[1]; oral
  LD50: ≥ 3000 mg/kg
[2]; [4]
  BUN of beagles in PEP.Na-administered group: 46 ± 8.3 mg/dL
  Creatinine value of beagles in PEP.Na-administered group: 3.0 ± 0.45 mg/dL
[2]; [5]
  BUN of beagles in PEP.Na-administered group: 63 ± 10.1 mg/dL
  Creatinine value of beagles in PEP.Na-administered group: 2.9 ± 0.41 mg/dL
[2]; [6]
  BUN of beagles in PEP.Na-administered group: 52 ± 9.6 mg/dL
  Creatinine value of beagles in PEP.Na-administered group: 2.5 ± 0.33 mg/dL
[2]; [7]
  BUN of beagles in PEP.Na-administered group: 44 ± 9.2 mg/dL
  Creatinine value of beagles in PEP.Na-administered group: 2.0 ± 0.31 mg/dL
[2]; beagle
  recovery of renal function: apparently effective for the recovery of renal function
[2]; beagles, 1 day (24 hours) after release of blocking
  BUN compared with control group: significantly lower value of BUN
[2]; beagles, 1 day after release of blocking
  creatinine value compared with control group: significantly lower value of creatinine value
[2]; beagles, after day 1, over a period of 3 days
  time course of creatinine value: gradually decreases thereafter over a period of 3 days
[2]; beagles, after release of blocking
  time course of BUN: reaches to a maximum after 2 days, but thereafter gradually decreases
[2]; [8]
  BUN of beagles in PEP.Na-administered group: 15 ± 0.5 mg/dL
  Creatinine value of beagles in PEP.Na-administered group: 0.8 ± 0.23 mg/dL
[3]; [9]
  BUN of rabbits in PEP.Na-administered group: 54.2 ± 2.2 mg/dL
  Creatinine value of rabbits in PEP.Na-administered group: 2.83 ± 0.74 mg/dL
[3]; [10]
  BUN of rabbits in PEP.Na-administered group: 58.0 ± 15.2 mg/dL
  Creatinine value of rabbits in PEP.Na-administered group: 2.61 ± 0.87 mg/dL
[3]; [11]
  BUN of rabbits in PEP.Na-administered group: 44.1 ± 10.5 mg/dL
  Creatinine value of rabbits in PEP.Na-administered group: 2.06 ± 0.72 mg/dL
[3]; [12]
  BUN of rabbits in PEP.Na-administered group: 35.5 ± 11.0 mg/dL
  Creatinine value of rabbits in PEP.Na-administered group: 1.73 ± 0.40 mg/dL
[3]; [13]
  BUN of rabbits in PEP.Na-administered group: 15.0 ± 5.8 mg/dL
  Creatinine value of rabbits in PEP.Na-administered group: 1.19 ± 0.17 mg/dL
[3]; [8]
  Creatinine value of rabbits in PEP.Na-administered group: 1.18 ± 0.06 mg/dL
[3]; immediately before blocking (baseline), mean ± spread
  BUN of rabbits in PEP.Na-administered group: 14.5 ± 1.3 mg/dL
[3]; rabbit
  recovery of renal function: apparently effective for the recovery of renal function
[3]; [14]
  BUN compared with control group: significantly lower value of BUN
  creatinine compared with control group: significantly lower value of creatinine
[3]; [15]
  time course of BUN: gradually decreases thereafter over a period of 4 days and gets back to the value given before blocking earlier than in control group
  time course of creatinine: gradually decreases thereafter over a period of 4 days and gets back to the value before blocking earlier than in control group

From patent publication US4874882A, “Process for preparing monosodium phosphoenolpyruvate” (Ube Industries, Ltd., priority 1986, dated 1989)
